Data reported in patent US20040250469A1, “Method for marking hydrocarbons with substituted anthraquinones” (priority 2003, published 2004).

Columns and labels:
[1] = Absorption maximum and extinction measurement (absorbance, 1 cm path length, 10 mg/L solutions); assay type: physicochemical; conditions: for extinction value: 10 mg/L solution, 1 cm path length; for molar extinction coefficient (ε): at λmax, toluene
Description: All percentages are weight percentages, unless otherwise indicated. Concentrations in parts per million (“ppm”) are calculated on a weight/volume basis. When a solvent is not specified for measurement of an absorption maximum, a hydrocarbon solvent is preferred. Extinction values are determined by measuring absorption in absorbance units (“AU”) with a 1 cm path length on 10 mg/L solutions. The term “petroleum hydrocarbons” refers to products having a predominantly hydrocarbon composition, although they may contain minor amounts of oxygen, nitrogen, sulfur or phosphorus; petroleum hydrocarbons are derived from petroleum refining processes; they include, for example, lubricating oil, hydraulic fluid, brake fluid, gasoline, diesel fuel, kerosene, jet fuel and heating oil. An “alkyl” group is a hydrocarbyl group having from one to twenty carbon atoms in a linear, branched or cyclic arrangement. Alkyl groups optionally have one or more double or triple bonds. Substitution on alkyl groups of one or more halo, hydroxy or alkoxy groups is permitted; alkoxy groups may in turn be substituted by one or more halo substituents. Preferably, alkyl groups have no halo or alkoxy substituents, and most preferably, alkyl groups are saturated and unsubstituted. A “heteroalkyl” group is an alkyl group in which at least one carbon has been replaced by O, NR, or S, wherein R is hydrogen, alkyl, aryl or aralkyl. An “aryl” group is a substituent derived from an aromatic hydrocarbon compound. An aryl group has a total of from six to twenty ring atoms, and has one or more rings which are separate or fused. An “aralkyl” group is an “alkyl” group substituted by an “aryl” group. A “heterocyclic” group is a substituent derived from a heterocyclic compound having from five to twenty ring atoms, at least one of which is nitrogen, oxygen or sulfur. […] Substitution on aryl or heterocyclic groups of one or more of the following groups: halo, cyano, nitro, hydroxy, alkoxy, alkyl, heteroalkyl, alkanoyl, amino, or amino substituted by one or more of alkyl, aryl, aralkyl, heterocyclic, heteroalkyl or alkanoyl is permitted, with substitution by one or more halo groups being possible on alkyl, heteroalkyl, alkanoyl or alkoxy groups. […] In one preferred embodiment of the invention, aryl and heterocyclic groups are unsubstituted or substituted only by alkyl groups. An “aromatic heterocyclic” group is a heterocyclic group derived from an aromatic heterocyclic compound.
The absorption maxima, λmax, of several substituted anthraquinone dyes of formula (I), measured in xylene, are provided in the following table. For all of the dyes listed, R^4 and R^6 are hydrogen.

Solubility in xylene = assay type: physicochemical; conditions: weight percentage
Description: A mixture of leuco-1,4,5,8-tetrahydroxyanthraquinone (5.91 g), sodium dithionite (1.09 g) and 1-hexanol (175.2 g) was stirred while adding 2-ethylhexylamine (24.08 g). The mixture was heated to reflux (148-152° C.), maintained at reflux for 6-6.5 hours, and then cooled to ambient temperature. The precipitate was collected and washed thoroughly with methanol and water, and dried. The yield of dried isolated product was 7.0 g. Approximately another 1.9 g was present in the mother liquor, for a total yield of 8.9 g (90%). This material has a maximum absorption band (λmax) at a wavelength of 692 nm in xylene, or 688 nm in cyclohexane, with an extinction value of 0.640 AU in xylene and 0.660 AU in cyclohexane for a 10 mg/L solution. The solubility of the title compound in xylene is approximately 20%.

| Structure (SMILES) | maximum absorption band (λmax) wavelength ([1]; in xylene) | extinction value ([1]; in xylene) | maximum absorption band (λmax) wavelength ([1]; in toluene) | also measured |
| --- | --- | --- | --- | --- |
| CCCCc1ccc(Nc2ccc(Nc3ccc(CCCC)cc3)c3c2C(=O)c2c(Nc4ccc(CCCC)cc4)c(C#N)c(C#N)c(Nc4ccc(CCCC)cc4)c2C3=O)cc1 [1,4,5,8-tetra-(4′-n-butylphenylamino)-2,3-dicyanoanthraquinone] | 835 nm | 0.342 AU |  |  |
| CCCCc1ccc(Nc2cccc3c2C(=O)c2c(Nc4ccc(CCCC)cc4)ccc(Nc4ccc(CCCC)cc4)c2C3=O)cc1 [Example 4, 1,4,5-tri(4-n-butylphenylamino)anthraquinone] |  |  | 675 nm |  |
| CCCCC(CC)CNc1ccc(NCC(CC)CCCC)c2c1C(=O)c1c(O)ccc(O)c1C2=O (centres unmarked) [Example 1, 1,4-di-(2-ethylhexylamino)-5,8-dihydroxyanthraquinone] | 692 nm | 0.640 AU |  | maximum absorption band (λmax) wavelength ([1]; in cyclohexane): 688 nm; extinction value ([1]; in cyclohexane): 0.660 AU; λmax, nm ([1]; measured in xylene, dyes of formula (I), R^4 and R^6 hydrogen): 692 nm; solubility in xylene (Solubility in xylene): approximately 20% |
| CCCCNc1c(C#N)c(C#N)c(NCCCC)c2c1C(=O)c1ccccc1C2=O [Example 2, 1,4-di-(n-butylamino)-2,3-dicyanoanthraquinone] | 700 nm | 0.23 AU |  |  |
| CCCCc1ccc(Nc2c(C#N)c(C#N)c(Nc3ccc(CCCC)cc3)c3c2C(=O)c2c(Nc4ccc(CCCC)cc4)c(C#N)c(C#N)c(Nc4ccc(CCCC)cc4)c2C3=O)cc1 [1,4,5,8-tetra(4′-n-butylphenylamino)-2,3,6,7-tetracyanoanthraquinone] | 900 nm | 0.19 AU |  |  |
| CCCCc1ccc(Nc2ccc(Nc3ccc(CCCC)cc3)c3c2C(=O)c2c(Nc4ccc(CCCC)cc4)ccc(Nc4ccc(CCCC)cc4)c2C3=O)cc1 [Example 6, 1,4,5,8-tetra(4-n-butylphenylamino)anthraquinone] |  |  | 762 nm | molar extinction coefficient (ε) [1]: ~36,900 |
| O=C1c2c(Nc3ccccc3)ccc(Nc3ccccc3)c2C(=O)c2c(Nc3ccccc3)ccc(Nc3ccccc3)c21 [Example 5, 1,4,5,8-tetra(phenylamino)anthraquinone] |  |  | 750 nm | molar extinction coefficient (ε) [1]: ~30,500 |
